Results reported in PubChem BioAssay (NCI).
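The compound was tested at five concentrations on cells cultured in 96-well plates, with a 48-hour exposure period. GI50 marks 50% less growth. TGI marks complete inhibition of growth.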

Legend:
Experiment in all cases: inhibition of tumour cell growth, NCI panel, 48 h
CCRF-CEM leukemia = tested on: CCRF-CEM leukemia
786-0 renal = tested on: 786-0 renal
A498 renal = tested on: A498 renal
UO-31 renal = tested on: UO-31 renal
IGROV1 ovarian = tested on: IGROV1 ovarian
SR leukemia = tested on: SR leukemia
M14 melanoma = tested on: M14 melanoma
LOX IMVI melanoma = tested on: LOX IMVI melanoma
SK-MEL-2 melanoma = tested on: SK-MEL-2 melanoma
HCT-15 colon = tested on: HCT-15 colon
SW-620 colon = tested on: SW-620 colon
OVCAR-4 ovarian = tested on: OVCAR-4 ovarian
OVCAR-3 ovarian = tested on: OVCAR-3 ovarian
T-47D breast = tested on: T-47D breast
NCI/ADR-RES ovarian = tested on: NCI/ADR-RES ovarian
RPMI-8226 leukemia = tested on: RPMI-8226 leukemia

In the case of `Cc1c[nH]c(C(=O)O)c1-c1ccc2c(-c3ccccc3)nc3ccccc3n12`, the TGI (CCRF-CEM leukemia) was > 100 µM, the TGI (786-0 renal) was > 100 µM and the TGI (A498 renal) was 28.3 µM. For the same compound, the TGI (UO-31 renal) was > 100 µM, the TGI (IGROV1 ovarian) was 77.8 µM and the TGI (SR leukemia) was 66.2 µM. For the same compound, the TGI (M14 melanoma) was > 100 µM, the TGI (LOX IMVI melanoma) was 63 µM and the TGI (SK-MEL-2 melanoma) was 55.1 µM. The TGI (HCT-15 colon) was 94.1 µM, the TGI (SW-620 colon) was > 100 µM and the TGI (OVCAR-4 ovarian) was > 100 µM. The TGI (OVCAR-3 ovarian) was 37.4 µM, the TGI (T-47D breast) was > 100 µM and the TGI (NCI/ADR-RES ovarian) was 48.1 µM.
For `CN(C)c1ccc(/C=C(\NC(=O)c2ccccc2)C(=O)Nc2ccccc2C(=O)O)cc1`, the TGI (CCRF-CEM leukemia) was > 100 µM, the TGI (RPMI-8226 leukemia) was > 100 µM and the TGI (786-0 renal) was > 100 µM. For the same compound, the TGI (A498 renal) was > 100 µM, the TGI (UO-31 renal) was > 100 µM and the TGI (IGROV1 ovarian) was > 100 µM. The TGI (SR leukemia) was > 100 µM, the TGI (M14 melanoma) was > 100 µM and the TGI (LOX IMVI melanoma) was > 100 µM. The TGI (SK-MEL-2 melanoma) was > 100 µM, the TGI (HCT-15 colon) was > 100 µM and the TGI (SW-620 colon) was > 100 µM. For the same compound, the TGI (OVCAR-3 ovarian) was > 100 µM, the TGI (T-47D breast) was > 100 µM and the TGI (NCI/ADR-RES ovarian) was > 100 µM.
With `CCn1c(=O)ccc2ccc(N(CCO)CCO)nc21` the TGI (CCRF-CEM leukemia) was > 100 µM, the TGI (RPMI-8226 leukemia) was > 100 µM and the TGI (786-0 renal) was > 100 µM. The TGI (A498 renal) was > 100 µM, the TGI (UO-31 renal) was > 100 µM and the TGI (IGROV1 ovarian) was > 100 µM. For the same compound, the TGI (SR leukemia) was > 100 µM, the TGI (M14 melanoma) was > 100 µM and the TGI (SK-MEL-2 melanoma) was > 100 µM. For the same compound, the TGI (HCT-15 colon) was > 100 µM, the TGI (SW-620 colon) was > 100 µM and the TGI (OVCAR-4 ovarian) was > 100 µM. For the same compound, the TGI (OVCAR-3 ovarian) was > 100 µM, the TGI (T-47D breast) was > 100 µM and the TGI (NCI/ADR-RES ovarian) was > 100 µM.
With `CN1CCN(C(=S)N(C(=O)c2ccco2)c2ccccc2)CC1` the TGI (CCRF-CEM leukemia) was > 100 µM, the TGI (RPMI-8226 leukemia) was > 100 µM and the TGI (786-0 renal) was > 100 µM. For the same compound, the TGI (UO-31 renal) was > 100 µM, the TGI (IGROV1 ovarian) was > 100 µM and the TGI (SR leukemia) was > 100 µM. For the same compound, the TGI (M14 melanoma) was > 100 µM, the TGI (LOX IMVI melanoma) was > 100 µM and the TGI (SK-MEL-2 melanoma) was > 100 µM. The TGI (HCT-15 colon) was > 100 µM, the TGI (SW-620 colon) was > 100 µM and the TGI (OVCAR-4 ovarian) was > 100 µM. The TGI (OVCAR-3 ovarian) was > 100 µM and the TGI (T-47D breast) was > 100 µM.
In the case of `CN(C)C=Nc1cccc2cnccc12`, the TGI (CCRF-CEM leukemia) was > 100 µM, the TGI (RPMI-8226 leukemia) was > 100 µM and the TGI (786-0 renal) was > 100 µM. The TGI (A498 renal) was > 100 µM, the TGI (UO-31 renal) was > 100 µM and the TGI (IGROV1 ovarian) was > 100 µM. For the same compound, the TGI (SR leukemia) was > 100 µM, the TGI (M14 melanoma) was > 100 µM and the TGI (LOX IMVI melanoma) was > 100 µM. For the same compound, the TGI (SK-MEL-2 melanoma) was > 100 µM, the TGI (HCT-15 colon) was > 100 µM and the TGI (OVCAR-4 ovarian) was > 100 µM. The TGI (OVCAR-3 ovarian) was > 100 µM, the TGI (T-47D breast) was > 100 µM and the TGI (NCI/ADR-RES ovarian) was > 100 µM.
`CC(C)CC(=O)NC(NC(C)C)(C(F)(F)F)C(F)(F)F` was tested, and the TGI (CCRF-CEM leukemia) was > 100 µM, the TGI (RPMI-8226 leukemia) was > 100 µM and the TGI (786-0 renal) was > 100 µM. For the same compound, the TGI (UO-31 renal) was > 100 µM, the TGI (IGROV1 ovarian) was > 100 µM and the TGI (SR leukemia) was > 100 µM. For the same compound, the TGI (LOX IMVI melanoma) was > 100 µM, the TGI (SK-MEL-2 melanoma) was > 100 µM and the TGI (HCT-15 colon) was > 100 µM. The TGI (SW-620 colon) was > 100 µM, the TGI (OVCAR-4 ovarian) was > 100 µM and the TGI (T-47D breast) was > 100 µM. The TGI (NCI/ADR-RES ovarian) was > 100 µM.
For `CC(=O)Nc1cc2c(cc1O)CC[C@@H]1[C@@H]2CC[C@]2(C)[C@@H](O)CC[C@@H]12`, the TGI (CCRF-CEM leukemia) was > 100 µM, the TGI (RPMI-8226 leukemia) was > 100 µM and the TGI (786-0 renal) was > 100 µM. For the same compound, the TGI (A498 renal) was 70.7 µM, the TGI (UO-31 renal) was 97.9 µM and the TGI (IGROV1 ovarian) was > 100 µM. The TGI (SR leukemia) was > 100 µM, the TGI (M14 melanoma) was > 100 µM and the TGI (LOX IMVI melanoma) was > 100 µM. The TGI (HCT-15 colon) was 54.5 µM, the TGI (SW-620 colon) was 71.9 µM and the TGI (OVCAR-4 ovarian) was > 100 µM. For the same compound, the GI50 (OVCAR-3 ovarian) was 9.2 µM, the TGI (OVCAR-3 ovarian) was > 100 µM and the TGI (T-47D breast) was 95.8 µM. For the same compound, the TGI (NCI/ADR-RES ovarian) was 55.9 µM.
`Cc1ccc2c(c1)[nH]c(=S)n2C=C1C(=O)CC(C)(C)CC1=O` was tested, and the TGI (CCRF-CEM leukemia) was > 100 µM, the TGI (786-0 renal) was > 100 µM and the TGI (A498 renal) was > 100 µM. For the same compound, the TGI (UO-31 renal) was > 100 µM, the TGI (IGROV1 ovarian) was > 100 µM and the TGI (SR leukemia) was > 100 µM. The TGI (M14 melanoma) was > 100 µM, the TGI (LOX IMVI melanoma) was > 100 µM and the TGI (SK-MEL-2 melanoma) was > 100 µM. The TGI (HCT-15 colon) was > 100 µM, the TGI (SW-620 colon) was > 100 µM and the TGI (OVCAR-4 ovarian) was > 100 µM. For the same compound, the TGI (OVCAR-3 ovarian) was > 100 µM, the TGI (T-47D breast) was > 100 µM and the TGI (NCI/ADR-RES ovarian) was > 100 µM.
